Measurements published in patent US20100221763A1, “Specific Acceptors for Transferases to Saccharides and Method for Obtaining and Using Same” (Health Research, Inc, priority 2005, published 2010).
Each block holds one molecule with its values, some of them ahead of it.

Assays:
[1] = test system: α1,3-L-FT of breast tumor BC9400; assay: α1,3-L-FT assay, breast tumor extract; type: biochemical, human; details: 1 mg protein of the tissue extract
Method: (§1) Colon tumor tissue (CC9338) and breast tumor tissue (BC9400) were obtained during surgical procedures at Roswell Park Cancer Institute and stored frozen within 1 h at −70° C. The tissues were homogenized at 4° C. with 4 volumes of 0.1M Tris Maleate […] 0.1% NaN3 using kinematica. After adjusting the concentration of Triton X-100 to 2%, these homogenates were mixed in the cold room for 1 h using Speci-Mix (Thermolyne) and then centrifuged at 20,000 g for 1 h at 4° C. The clear fat-free supernatant was stored frozen at −20° C. until use. Aliquots of 10 μL from this extract were used in assays run in duplicates. Glycosyltransferase activity in cell lysate was determined by mixing the lysates with acceptor and radiolabeled donor (monosaccharide) under the reaction conditions detailed below, followed by separation of un-reacted donor from the radioactive product using anionic or hydrophobic chromatography. In all cases, the radioactive content of isolated products was determined by using 3a70 scintillation cocktail (Research Products International, Mount Prospect, Ill.) and a Beckman LS6500 scintillation counter. Controls for each assay contained the reaction mixture with everything except the acceptor. All assays were run in duplicate. […]

[2] = test system: α1,3-L-FT of colon tumor CC9338; assay: α1,3-L-FT assay, colon tumor extract; type: biochemical, human; details: 1 mg protein of the tissue extract
Method: as §1

[3] = test system: α1,4-L-FT of breast tumor BC9400; assay: α1,4-L-FT assay, breast tumor extract; type: biochemical, human; details: 1 mg protein of the tissue extract
Method: as §1

[4] = test system: α1,4-L-FT of colon tumor CC9338; assay: α1,4-L-FT assay, colon tumor extract; type: biochemical, human; details: 1 mg protein of the tissue extract
Method: as §1

[5] = test system: α1,2-L-FT of colon tumor CC9338; assay: α1,2-L-FT assay, colon tumor extract; type: biochemical, human; details: 1 mg protein of the tissue extract
Method: (§2) Colon tumor tissue (CC9338) and breast tumor tissue (BC9400) were obtained during surgical procedures at Roswell Park Cancer Institute and stored frozen within 1 h at −70° C. The tissues were homogenized at 4° C. with 4 volumes of 0.1M Tris Maleate […] 0.1% NaN3 using kinematica. After adjusting the concentration of Triton X-100 to 2%, these homogenates were mixed in the cold room for 1 h using Speci-Mix (Thermolyne) and then centrifuged at 20,000 g for 1 h at 4° C. The clear fat-free supernatant was stored frozen at −20° C. until use. Aliquots of 10 μL from this extract were used in assays run in duplicates. Glycosyltransferase activity in cell lysate was determined by mixing the lysates with acceptor and radiolabeled donor (monosaccharide) under the reaction conditions detailed below, followed by separation of un-reacted donor from the radioactive product using anionic or hydrophobic chromatography. In all cases, the radioactive content of isolated products was determined by using 3a70 scintillation cocktail (Research Products International, Mount Prospect, Ill.) and a Beckman LS6500 scintillation counter. Controls for each assay contained the reaction mixture with everything except the acceptor. All assays were run in duplicate.
(§3) α1,2, α1,6-, α1,3- and α1,4-fucosyltransferase (FT) assay reactions were carried out for 2 h in a reaction mixture containing 50 mM Hepes buffer (pH 7.5), 5 mM MnCl2, 7 mM ATP, 3 mM NaN3, 3 mM synthetic acceptor or 40 μg of fetuin-based acceptor, 0.05 μCi GDP-[14C]Fuc (290 mCi/mmol) and 10 μl cell extract in a total volume of 20 μl [Chandrasekaran et al., 1996]. Sulfotransferase (Sulfo T) assay reactions took 2 h and required a mixture containing 100 mM Tris-maleate (pH 7.2), 5 mM Mg Acetate, 5 mM ATP, 10 mM NaF, 10 mM BAL, 7.5 mM acceptor, 0.5 μCi of [^35S]PAPS (specific activity 2.4 Ci/mmol) and 10 μl of cell extract in a total volume of 30 μl [Chandrasekaran et al., 2004].
(§4) Dowex-1-C1 or Sep-Pak C18 cartridges were used to isolate radiolabeled product from the reaction mixture. For GalT, GalNAc-T and FT assays, the incubation mixture was diluted with 1 ml water and passed through a 1 ml Dowex-1-C1 column [Chandrasekaran et al., 1996; Chandrasekaran et al., 2001]. The column was washed twice with 1 ml of water. The breakthrough and the water wash contained the [^14C]-galactosylated or [^14C]-fucosylated products formed with neutral acceptors. 3 ml of 0.1M NaCl was used to obtain [^14C]-fucosylated products from sialylated acceptors after water elution. For sialytransferase assays, the radioactive products from benzylglycosides were separated by hydrophobic chromatography on Sep-Pak C18 cartridge (Waters, Milford, Mass.), and elution of the product was done with 3 ml methanol [Palcic et al., 1988]. […]

[6] = test system: α1,2-L-FT of breast tumor BC9400; assay: α1,2-L-FT assay, breast tumor extract; type: biochemical, human; details: 1 mg protein of the tissue extract
Method: as §2, §3, §4

[7] = molecular target: T1, Rat recombinant α2,3(O)ST (Rattus norvegicus, UniProt Q11205); assay: Sialyltransferase assay with cloned α2,3(O)ST; type: biochemical; details: for acceptor efficiency for cloned α2,3(O)ST (FIG. 6C): compared to Galβ1,3GalNAcβ1,3Galα-O-Me
T1 construct: purchased Calbiochem
T1 sequence (Q11205 1-350): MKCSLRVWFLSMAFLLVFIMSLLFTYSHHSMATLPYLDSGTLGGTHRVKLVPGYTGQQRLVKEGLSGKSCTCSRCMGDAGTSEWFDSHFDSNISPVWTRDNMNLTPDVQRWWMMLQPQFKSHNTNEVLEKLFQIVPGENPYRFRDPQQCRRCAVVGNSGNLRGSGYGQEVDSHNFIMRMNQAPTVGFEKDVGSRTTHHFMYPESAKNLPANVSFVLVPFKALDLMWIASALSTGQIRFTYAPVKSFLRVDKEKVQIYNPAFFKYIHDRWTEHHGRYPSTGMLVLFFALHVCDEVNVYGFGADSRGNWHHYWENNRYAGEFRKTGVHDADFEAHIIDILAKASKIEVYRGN

Compound: CO[C@H]1[C@H](O[C@H]2[C@H](O)[C@@H](NC(C)=O)C(O)O[C@@H]2CO)O[C@H](CO)[C@H](O)[C@@H]1O (stereo partly shown) [2-O-MeGalβ1,4GlcNAc]
α1,3-L-FT activity: incorporation of radioactive sugar [1]: 30.5 CPM × 10^−3 | α1,3-L-FT activity: incorporation of radioactive sugar [2]: 540.9 CPM × 10^−3

Compound: CO[C@H]1[C@H](O[C@H]2[C@H](O)[C@@H](CO)OC(O)[C@@H]2NC(C)=O)O[C@H](CO)[C@H](O)[C@@H]1O (stereo partly shown) [2-O-MeGalβ1,3GlcNAc]
α1,4-L-FT activity: incorporation of radioactive sugar [3]: 4.6 CPM × 10^−3 | α1,4-L-FT activity: incorporation of radioactive sugar [4]: 727.5 CPM × 10^−3

Compound: CO[C@H]1O[C@H](CO)[C@H](O)[C@H](O[C@@H]2O[C@H](CO)[C@H](O)[C@H](O[C@@H]3O[C@H](CO)[C@H](O)[C@H](O)[C@H]3O)[C@H]2NC(C)=O)[C@H]1O [Galβ1,3GalNAcβ1,3Galα-O-Me]
α1,2-L-FT activity: incorporation of radioactive sugar [5]: 49.1 CPM × 10^−3 | α1,2-L-FT activity: incorporation of radioactive sugar [6]: 13.7 CPM × 10^−3

Compound: C=CCO[C@H]1O[C@H](CO)[C@H](O)[C@H](O[C@@H]2O[C@H](CO)[C@H](O)[C@H](O)[C@H]2O)[C@H]1NC(C)=O [Galβ1,3GalNAcα-O—Al]
α1,2-L-FT activity: incorporation of radioactive sugar [5]: 36.8 CPM × 10^−3 | α1,2-L-FT activity: incorporation of radioactive sugar [6]: 5.5 CPM × 10^−3

acceptor efficiency for cloned α2,3(O)ST (FIG. 6C) ([7]; 0.15 mM): about 50% | acceptor efficiency for cloned α2,3(O)ST (FIG. 6C) ([7]; 0.75 mM): ~100% | Sialyltransferase activity (%) Cloned α2,3(O)ST ([7]; Table I, acceptor 7.5 mM, 100% = 40560 CPM (3-O-MeGalβ1,4GlcNAcβ1,6(Galβ1,3)GalNAcα-O-Bn), listed as D-Fucβ1,3GalNAcβ1,3-Gal-O-Me): 115.6%
Compound: CO[C@H]1O[C@H](CO)[C@H](O)[C@H](O[C@@H]2O[C@H](CO)[C@H](O)[C@H](O[C@@H]3O[C@H](C)[C@H](O)[C@H](O)[C@H]3O)[C@H]2NC(C)=O)[C@H]1O [D-Fucβ1,3GalNAcβ1,3Galα-O-Me]
α1,2-L-FT activity: incorporation of radioactive sugar [5]: 89.8 CPM × 10^−3 | α1,2-L-FT activity: incorporation of radioactive sugar [6]: 16.2 CPM × 10^−3
